Experimental data from article PMC5161541 (Nuclear medicine and biology, 2016).
Read-outs that look alike come from different tables or passages of the source.

Columns and labels:
σ1 receptors [1] = biological target: T1, σ1 receptors (Mus musculus, UniProt O55242); experiment: In vivo specific binding and blocking by pretreatment with σ receptor ligands; conditions: 2.5 μmol / kg i.v., mice
σ1 receptors [2] = biological target: T1, σ1 receptors; experiment: Regional brain distribution with blocking pretreatments; assay type: in vivo, CD-1 mouse; conditions: 2.5 μmol / kg i.v., 60 min, nine regions
SERT = SERT (Mus musculus, UniProt Q60857); experiment: Secondary site spot test, [3H]-Paroxetine; assay type: binding
[3] = biological target: Kappa (κ) opioid receptor (Cavia porcellus, UniProt P41144); experiment: Secondary site spot test, [3H]-U69593; assay type: binding, guinea pig
σ2 receptors [4] = biological target: T2, σ2 receptors (Mus musculus, UniProt Q8VD00); experiment: Competition binding against [3H]-DTG with PTZ mask in mouse brain membranes
T2 sequence (Q8VD00 1-176): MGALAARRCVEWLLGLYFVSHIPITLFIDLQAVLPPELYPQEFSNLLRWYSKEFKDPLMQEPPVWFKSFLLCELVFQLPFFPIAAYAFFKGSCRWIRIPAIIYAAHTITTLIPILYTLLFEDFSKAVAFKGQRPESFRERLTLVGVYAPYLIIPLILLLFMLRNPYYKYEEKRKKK

σ1 receptors [5] = biological target: T1, σ1 receptors; experiment: Competition binding against [3H]-PTZ in mouse brain membranes
Mu (μ) opioid receptor = Mu (μ) opioid receptor (Cavia porcellus, UniProt A0ACM8Q262); experiment: Secondary site spot test, [3H]-DAMGO; assay type: binding, guinea pig
[6] = biological target: sites labeled by [125I]-E-IA-BF-PIPZE (σ1 receptors) (Mus musculus, UniProt O55242); assay type: binding
DAT = DAT (Mus musculus, UniProt Q61327); experiment: Secondary site spot test, [125I]-RTI-121; assay type: binding
[7] = biological target: Delta (δ) opioid receptor (Mus musculus, UniProt P32300); experiment: Secondary site spot test, [3H]-Naltrindole; assay type: binding
NET = NET (Mus musculus, UniProt O55192); experiment: Secondary site spot test, [3H]-Nisoxetine; assay type: binding
σ2 receptors [8] = biological target: T2, σ2 receptors; conditions: read-out: Sigma-2, Ki; cited from earlier work
σ1 receptors [9] = biological target: T1, σ1 receptors; conditions: cited from earlier work
[10] = test system: (−)-cocaine induced locomotor hyperactivity; conditions: cited from earlier work

T1 sequence (O55242 whole entry): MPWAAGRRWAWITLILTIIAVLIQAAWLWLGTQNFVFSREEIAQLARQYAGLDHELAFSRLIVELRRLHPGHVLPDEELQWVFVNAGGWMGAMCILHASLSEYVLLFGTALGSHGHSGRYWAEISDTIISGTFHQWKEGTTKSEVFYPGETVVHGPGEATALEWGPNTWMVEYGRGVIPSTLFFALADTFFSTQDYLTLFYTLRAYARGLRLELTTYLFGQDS
sites labeled by [125I]-E-IA-BF-PIPZE (σ1 receptors), sequence (O55242 whole entry): as above
DAT, sequence (Q61327 whole entry): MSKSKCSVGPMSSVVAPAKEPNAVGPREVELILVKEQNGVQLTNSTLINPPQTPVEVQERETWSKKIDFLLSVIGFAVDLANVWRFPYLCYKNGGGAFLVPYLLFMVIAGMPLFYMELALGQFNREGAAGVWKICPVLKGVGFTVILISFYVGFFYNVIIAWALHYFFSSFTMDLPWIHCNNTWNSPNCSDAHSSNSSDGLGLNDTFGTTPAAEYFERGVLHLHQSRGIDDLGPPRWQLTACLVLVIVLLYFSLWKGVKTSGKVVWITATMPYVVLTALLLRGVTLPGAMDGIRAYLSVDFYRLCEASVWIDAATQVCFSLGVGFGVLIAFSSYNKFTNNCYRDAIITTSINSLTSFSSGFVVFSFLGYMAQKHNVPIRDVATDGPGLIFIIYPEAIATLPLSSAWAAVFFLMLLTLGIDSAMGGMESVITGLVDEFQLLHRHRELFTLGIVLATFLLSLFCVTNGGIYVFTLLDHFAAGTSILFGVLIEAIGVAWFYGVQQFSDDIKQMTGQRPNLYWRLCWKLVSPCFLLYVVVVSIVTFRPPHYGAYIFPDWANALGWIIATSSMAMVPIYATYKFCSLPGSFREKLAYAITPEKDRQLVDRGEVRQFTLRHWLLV
SERT, sequence (Q60857 whole entry): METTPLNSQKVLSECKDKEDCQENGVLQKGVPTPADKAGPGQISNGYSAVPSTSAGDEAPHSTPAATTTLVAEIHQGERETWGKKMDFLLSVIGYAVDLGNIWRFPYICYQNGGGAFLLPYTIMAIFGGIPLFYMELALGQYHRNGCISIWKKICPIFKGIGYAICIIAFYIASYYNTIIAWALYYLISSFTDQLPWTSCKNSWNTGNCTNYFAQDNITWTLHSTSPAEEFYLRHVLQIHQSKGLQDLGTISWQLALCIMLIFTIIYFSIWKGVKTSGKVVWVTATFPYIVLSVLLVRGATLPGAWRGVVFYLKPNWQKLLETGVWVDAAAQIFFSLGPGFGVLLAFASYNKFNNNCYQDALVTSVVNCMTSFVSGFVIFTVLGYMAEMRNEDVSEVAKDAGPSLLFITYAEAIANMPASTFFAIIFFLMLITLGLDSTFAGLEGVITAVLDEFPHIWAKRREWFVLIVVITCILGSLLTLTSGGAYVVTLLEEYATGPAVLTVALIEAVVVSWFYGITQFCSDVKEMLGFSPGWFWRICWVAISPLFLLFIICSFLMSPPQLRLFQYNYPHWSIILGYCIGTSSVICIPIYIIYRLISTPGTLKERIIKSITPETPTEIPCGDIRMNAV
Delta (δ) opioid receptor, sequence (P32300 whole entry): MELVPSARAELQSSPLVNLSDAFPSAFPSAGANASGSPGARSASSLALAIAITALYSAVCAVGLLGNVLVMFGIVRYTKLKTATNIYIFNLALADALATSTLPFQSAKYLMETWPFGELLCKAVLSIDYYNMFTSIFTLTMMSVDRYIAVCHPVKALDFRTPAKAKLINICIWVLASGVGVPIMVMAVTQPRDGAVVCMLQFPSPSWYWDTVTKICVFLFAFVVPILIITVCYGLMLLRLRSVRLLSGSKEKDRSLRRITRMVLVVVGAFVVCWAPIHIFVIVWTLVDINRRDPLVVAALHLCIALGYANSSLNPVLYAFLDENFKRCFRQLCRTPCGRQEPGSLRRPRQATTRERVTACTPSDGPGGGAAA
Mu (μ) opioid receptor, sequence (A0ACM8Q262 1-400): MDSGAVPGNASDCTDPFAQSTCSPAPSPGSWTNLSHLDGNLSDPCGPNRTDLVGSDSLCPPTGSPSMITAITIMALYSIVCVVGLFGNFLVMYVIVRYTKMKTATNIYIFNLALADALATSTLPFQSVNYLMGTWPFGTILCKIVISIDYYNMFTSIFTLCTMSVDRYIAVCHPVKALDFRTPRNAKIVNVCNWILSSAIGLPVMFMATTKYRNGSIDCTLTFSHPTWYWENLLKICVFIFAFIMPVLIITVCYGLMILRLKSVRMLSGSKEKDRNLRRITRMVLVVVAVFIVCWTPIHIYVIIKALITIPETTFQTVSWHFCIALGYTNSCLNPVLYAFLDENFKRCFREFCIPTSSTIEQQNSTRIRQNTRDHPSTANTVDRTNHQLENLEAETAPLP
NET, sequence (O55192 whole entry): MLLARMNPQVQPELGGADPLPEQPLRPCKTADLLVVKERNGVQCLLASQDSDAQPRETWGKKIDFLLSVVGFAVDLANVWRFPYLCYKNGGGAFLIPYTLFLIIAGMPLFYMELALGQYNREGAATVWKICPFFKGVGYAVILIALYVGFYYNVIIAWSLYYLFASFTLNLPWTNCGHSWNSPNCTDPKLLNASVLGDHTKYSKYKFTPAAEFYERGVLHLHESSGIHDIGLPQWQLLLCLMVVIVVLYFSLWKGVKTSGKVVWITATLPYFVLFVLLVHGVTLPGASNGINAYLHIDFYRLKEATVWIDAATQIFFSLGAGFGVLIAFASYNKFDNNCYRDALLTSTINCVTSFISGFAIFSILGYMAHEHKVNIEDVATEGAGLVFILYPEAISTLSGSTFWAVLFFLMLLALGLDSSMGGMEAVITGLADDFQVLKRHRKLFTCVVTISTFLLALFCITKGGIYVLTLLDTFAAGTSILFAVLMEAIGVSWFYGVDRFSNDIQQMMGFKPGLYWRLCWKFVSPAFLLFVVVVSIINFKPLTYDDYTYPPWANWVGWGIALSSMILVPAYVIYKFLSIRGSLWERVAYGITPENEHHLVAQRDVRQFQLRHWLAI
Kappa (κ) opioid receptor, sequence (P41144 whole entry): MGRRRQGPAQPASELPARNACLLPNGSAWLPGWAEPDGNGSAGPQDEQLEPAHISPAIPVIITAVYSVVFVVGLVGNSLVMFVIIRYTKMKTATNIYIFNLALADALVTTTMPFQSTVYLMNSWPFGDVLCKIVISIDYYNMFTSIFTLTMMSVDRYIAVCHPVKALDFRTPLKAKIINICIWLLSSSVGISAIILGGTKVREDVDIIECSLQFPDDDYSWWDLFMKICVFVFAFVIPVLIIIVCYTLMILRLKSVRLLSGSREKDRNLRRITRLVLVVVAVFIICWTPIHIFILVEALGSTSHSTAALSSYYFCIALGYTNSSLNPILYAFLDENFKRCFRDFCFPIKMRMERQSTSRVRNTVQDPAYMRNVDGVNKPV

I/C=C/CN1CCN(CCc2ccc3c(c2)CCO3)CC1 [E-IA-BF-PE-PIPZE, (E)-1-(2-(2,3-dihydrobenzofuran-5-yl)ethyl)-4-(iodoallyl)piperazine]
adverse effects or abnormal behaviors (σ1 receptors [1]): No adverse effects or abnormal behaviors | reduction of radioligand uptake across brain regions (σ1 receptors [2]): over 92% | IC50 (SERT): > 10000 nM | inhibition at 10 µM (SERT; read-out: inhibition of specific radioligand binding, SERT): ≤ 50% | IC50 [3]: > 5000 nM | inhibition at 5 µM ([3]; read-out: inhibition of specific radioligand binding, κ): ≤ 50% | Ki (σ2 receptors [4]): 74.5 ± 4.44 nM | Ki (σ1 receptors [5]): 0.43 ± 0.03 nM | Hill slope (σ1 receptors [5]; [3H]-PTZ competition): −1.23 ± 0.04 | Selectivity: σ2/σ1 (Ki ratio) (σ1 receptors [5]; σ2 Ki / σ1 Ki): 173 | IC50 (Mu (μ) opioid receptor; read-out: IC50 Mu, [3H]-DAMGO 0.6 nM, guinea pig membranes): > 5000 nM | inhibition at 5 µM (Mu (μ) opioid receptor; read-out: inhibition of specific radioligand binding, μ): ≤ 50% | IC50 [6]: 1.7 ± 0.2 nM | Ki [6]: 1.1 ± 0.1 nM | Hill (nH) ([6]; means ± SEM (n = 3 – 6)): 1.0 ± 0.1 | IC50 (DAT): > 10000 nM | inhibition at 10 µM (DAT; read-out: inhibition of specific radioligand binding, DAT): ≤ 50% | IC50 [7]: > 5000 nM | inhibition at 5 µM ([7]; read-out: inhibition of specific radioligand binding, δ): ≤ 50% | IC50 (NET): > 10000 nM | inhibition at 10 µM (NET; read-out: inhibition of specific radioligand binding, NET): ≤ 50%

COc1ccc(CCN2CCN(C/C=C/I)CC2)cc1OC [E-IA-DM-PE-PIPZE, (E)-1-(2-(2,3-dimethoxy-5-yl)ethyl)-4-(iodoallyl)piperazine]
Ki (σ2 receptors [8]): 1450 ± 220 nM | Selectivity: σ2/σ1 (σ1 receptors [9]): 216 | Ki (σ1 receptors [9]; read-out: Sigma-1, Ki): 6.7 ± 0.9 nM | effect on (−)-cocaine induced locomotor hyperactivity [10]: partially attenuates
